{"source": "patent US20230375530A1", "about": "“HUMAN BLOOD-BRAIN BARRIER MODEL FOR IMMUNOLOGICAL STUDIES” (WISCONSIN ALUMNI RESEARCH FOUNDATION, priority 2020, published 2023)", "format_in_all_cases": "cell-based, human", "key": {"[1]": {"system": "CD31+ Passage 1 ECs", "test": "Dextran accumulation assay (fluid-phase endocytosis)", "conditions": "10 kDa dextran, 2 h, 37° C., CHIR vs DMSO", "description": "A fixable, Alexa Fluor 488-conjugated dextran with an average molecular weight of […] (Invitrogen) was used as a tracer to estimate total fluid-phase endocytosis. Dextran was added at 10 μM to the medium of Passage 1 cultures. Plates were incubated on rotating platforms at 37° C. or 4° C. for 2 h. Medium was removed and cells were washed once with DPBS, and then incubated with Accutase for 10 min at 37° C. Cell suspensions were passed through 40 μm cell strainers into 4× volume of DMEM/F-12 and centrifuged for 5 min, 200×g. Cells were resuspended in MACS buffer and incubated with the CD31-APC antibody (Miltenyi Biotec) for 30 min at 4° C., protected from light. Cell suspensions were brought to a volume of 5 mL with MACS buffer and centrifuged at 4° C. for 5 min, 200×g. Pellets were resuspended in DPBS supplemented with 4% paraformaldehyde and incubated for 15 min at room temperature, protected from light. Cells were centrifuged for 5 min, 200×g. Pellets were resuspended in MACS buffer and analyzed on a BD FACSCalibur flow cytometer (BD Biosciences). FlowJo software was used to gate CD31^+ cells and quantify geometric mean fluorescence intensity and coefficient of variation (CV) of dextran."}, "[2]": {"system": "Passage 3 ECs", "test": "Transendothelial electrical resistance and sodium fluorescein permeability", "conditions": "CHIR-treated vs DMSO-treated"}, "[3]": {"system": "Passage 1 ECs (WTC11)", "test": "EC proliferation (Ki67 immunocytochemistry, cell cycle analysis)", "conditions": "CHIR vs DMSO", "description": "Images were analyzed using FIJI (ImageJ) software. For epifluorescence images, 5 fields (20×) were analyzed per well, with 3-4 wells per treatment condition. For quantification of cell number, EC colonies were manually outlined, and the Analyze Particles function was used to estimate the number of nuclei within the EC colonies. Nuclei outside the EC colonies were manually counted. EC purity (% EC) was calculated as the number of nuclei within EC colonies relative to total nuclei. To estimate % GLUT-1^+ ECs, cells within the EC colonies with membrane-localized GLUT-1 immunoreactivity (e.g., arrowheads in FIG. 24B) were manually counted. To estimate % Ki67^+ ECs, cells within the EC colonies with at least one nuclear-localized Ki67 punctum were manually counted. For quantification of fluorescence intensity in epifluorescence images, EC colonies were manually outlined, and the Measure function was used to obtain the mean fluorescence intensity for each image channel (fluorophore). A cell-free area of the plate was similarly quantified for background subtraction. Following background subtraction, the mean fluorescence intensity of each protein of interest was normalized to the mean fluorescence intensity of Hoechst to correct for effects of cell density. For confocal images, 3-4 fields (100×) containing only VE-cadherin^+ ECs were analyzed per well, with 4 wells per treatment condition. […]"}}}
{"smiles": "Cc1c[nH]c(-c2cnc(NCCNc3ccc(C#N)cn3)nc2-c2ccc(Cl)cc2Cl)n1", "note": "[CHIR, CHIR 99021]", "values": [{"measurement": "distribution of dextran intensities", "setting": "[1]", "value": "broadening of the distribution of dextran intensities"}, {"measurement": "geometric mean dextran signal", "setting": "[1]", "value": "did not change the geometric mean dextran signal"}, {"measurement": "transendothelial electrical resistance (TEER)", "setting": "[2]", "value": "elevated transendothelial electrical resistance"}, {"measurement": "EC proliferation", "setting": "[3]", "value": "increased EC proliferation"}]}
